What was measured:
Format in all cases: in vivo, human
[1] = tested on: mild to moderate AD patients; assay: Test Example 1: phase II placebo-controlled trial, ADAS-cog change from baseline; settings: low dose group (160 mg); within 2.6 years from clinical diagnosis
Source text: (§1) Test Example 1 Multicenter Randomized Double-Blind Phase II Placebo-Controlled Trial for Assessing Effectiveness and Safety of Compound a in Mild to Moderate AD Patients
(§2) Patients were screened in a period from 42 days before treatment assignment to the assignment based on the following selection criteria. Patients matched (484 patients) were randomly divided into the following 3 groups and the trial was started.
(§3) • Patients who were probable AD and are 55 years old or older and 85 years old or younger at the time of obtaining consent of screening. • Patients with an MMSE score of 12 to 22 at the time of screening • Patients with a Modified Hachinski Ischemia Scale score of 4 or less • Patients who have been treated with a donepezil hydrochloride or rivastigmine transdermal system for at least 4 months before the baseline and with a stable dose thereof for 3 months before the baseline. • In the case of patients who have received memantine in addition to being treated with a donepezil hydrochloride or rivastigmine transdermal system, patients who have been treated with memantine for at least 4 months before the baseline and with a stable dose thereof for 3 months before the baseline. • Patients whose brain MRI or CT results match AD at the time of screening Organization of Groups: (1) High dose group: 224 mg of a test compound (160 mg in terms of Compound A) was orally administered once a day for 4 weeks and then 448 mg of a test compound (320 mg in terms of Compound A) was orally administered once a day for 48 weeks (158 patients) (2) Low dose group: 224 mg of a test compound (160 mg in terms of Compound A) was orally administered once a day for 52 weeks (166 patients) (3) Placebo group: placebo was orally administered once a day for 52 weeks (158 patients) Method of assessment: (1) ADAS-cog
(§4) The ADAS-cog score of the subject was evaluated at the baseline (before administration of investigational drug on the first day of administration) and after 52 weeks and the cognitive function was assessed based on the change from the baseline.
(§5) Changes in the ADAS-cog score and the ADCS-ADL score after 52 weeks from the baseline were compared between the high dose group and the placebo group, and between the low dose group and the placebo group based on the Mixed-effect Models for Repeated Measures (MMRM) with a significance level of 5%. For models, fixed effects included the treatment groups and time, while covariates included age, the baseline of ADAS-cog or ADCS-ADL, the baseline of MMSE and ApoE4 genotype (positive/negative). The interaction between time and the treatment groups and the interaction between the baseline of ADAS-cog and time were also included.

[2] = tested on: mild to moderate AD patients; assay: Test Example 2: early phase II placebo-controlled trial, ADCS-ADL change from baseline; settings: for Change in ADCS-ADL from baseline at week 52, least square means (95% confidence interval) / Change in ADCS-ADL from baseline at week 52, difference from placebo group (95% confidence interval): MMSE 22 or less at screening
Source text: (§6) Test Example 2 Multicenter Randomized Double-Blind Early Phase II Placebo-Controlled Trial for Assessing Effectiveness and Safety of Compound a in Mild to Moderate AD Patients
(§7) Patients were screened in a period from 28 days before treatment assignment to the assignment based on the following selection criteria. Patients matched (373 patients) were randomly divided into the following 2 groups and the trial was started.
(§8) • Patients who were probable AD and over or 50 years old or older and 90 years old or younger at the time of obtaining consent of screening. • Patients with an MMSE score of 15 to 24 at the time of screening • Patients with a Modified Hachinski Ischemia Scale score of 4 or less • Patients who have been treated with a donepezil hydrochloride for at least 6 months before the baseline and with a stable dose thereof for 3 months before the baseline. • Patients whose brain MRI or CT results match AD at the time of screening Organization of Groups: (1) Active drug group: 224 mg of a test compound (160 mg in terms of Compound A) was orally administered once a day for 52 weeks (176 patients) (2) Placebo group: placebo was orally administered once a day for 52 weeks (178 patients) Method of assessment: (1) ADAS-cog
(§9) The ADCS-ADL score of the subject was evaluated at the baseline (before administration of investigational drug on the first day of administration) and after 52 weeks and the level of impairment was assessed based on the change from the baseline.
(§10) Changes in the ADAS-cog score and the ADCS-ADL score after 52 weeks from the baseline were compared between the high dose group and the placebo group, and between the low dose group and the placebo group based on MMRM with a significance level of 5%. For models, fixed effects included the treatment groups and time, while covariates included the baseline of ADAS-cog or ADCS-ADL and the baseline of MMSE. The interaction between time and the treatment groups and the interaction between the baseline of ADAS-cog and time were also included. For the period from clinical diagnosis, the first day of administration of donepezil hydrochloride which was combined with Compound A was defined as the time of clinical diagnosis. Furthermore, to match the conditions with those of Test Example 1, the subject was patients with an MMSE score of 22 or less at the time of screening.

[3] = tested on: mild to moderate AD patients; assay: Test Example 1: phase II placebo-controlled trial, ADCS-ADL change from baseline
Source text: as §1, §2, §3, §9, §5

[4] = tested on: mild to moderate AD patients; assay: Test Example 2: early phase II placebo-controlled trial, ADAS-cog change from baseline; settings: for Change in ADAS-cog from baseline at week 52, least square means (95% confidence interval) / Change in ADAS-cog from baseline at week 52, difference from placebo group (95% confidence interval): MMSE 22 or less at screening
Source text: as §6, §7, §8, §4, §10

[5] = low dose group (160 mg in terms of Compound A, oral once a day, 52 weeks), within 2.6 years from clinical diagnosis
[6] = low dose group (160 mg), more than 2.6 years from clinical diagnosis
[7] = low dose group (160 mg), total (all periods)
[8] = low dose group (160 mg), within 2.6 years from clinical diagnosis
[9] = high dose group, more than 2.6 years from clinical diagnosis
[10] = high dose group, total (all periods from clinical diagnosis)
[11] = low dose group (160 mg), total (all periods from clinical diagnosis)

Q: `OC1CN(CCCOCCc2ccc3sccc3c2)C1` [Compound A, 1-(3-(2-(1-benzothiophen-5-yl)ethoxy)propyl)azetidin-3-ol] was tested. Which “Change in ADAS-cog from baseline at week 52, difference from placebo group (95% confidence interval)” value [1] did it give?
A: −0.9 (−3.6, 1.8)

Q: What about the “Reduction in ADCS-ADL from the baseline at week 52 (in words)” value ([2]; Test Example 2, low dose group (160 mg)) of the same compound?
A: tended to be suppressed

Q: And the “Tendency to suppress reduction in ADCS-ADL, patients within 2.6 years versus all patients (in words)” value ([2]; Test Example 2, low dose group (160 mg), week 52)?
A: more remarkable

Q: What about the “Change in ADCS-ADL from baseline at week 52, least square means (95% confidence interval)” value [2, 5] of the same compound?
A: −5.5(−7.8, −3.2)

Q: And the “Change in ADCS-ADL from baseline at week 52, difference from placebo group (95% confidence interval)” value [2, 6]?
A: −3.5(−7.8, 0.8)

Q: What about the “Change in ADCS-ADL from baseline at week 52, least square means (95% confidence interval)” value [2, 6] of the same compound?
A: −7.5(−10.8, −4.3)

Q: And the “Change in ADCS-ADL from baseline at week 52, difference from placebo group (95% confidence interval)” value [2, 7]?
A: 0.5(−2.0, 3.0)

Q: And the “Change in ADCS-ADL from baseline at week 52, least square means (95% confidence interval)” value [2, 7]?
A: −6.2(−8,1, −4.3)

Q: And the “Change in ADCS-ADL from baseline at week 52, difference from placebo group (95% confidence interval)” value [2, 8]?
A: 2.6(−0.5, 5.7)

Q: What about the “Reduction in ADCS-ADL from the baseline at week 52 (in words)” value ([3]; Test Example 1, high dose group) of the same compound?
A: tended to be suppressed

Q: What about the “Tendency to suppress reduction in ADCS-ADL, patients within 2.6 years versus all patients (in words)” value ([3]; Test Example 1, high dose group, week 52) of the same compound?
A: more remarkable

Q: And the “Change in ADCS-ADL from baseline at week 52, least square means (95% confidence interval)” value ([3]; high dose group (160 mg 4 weeks then 320 mg 48 weeks, oral once a day), within 2.6 years from clinical diagnosis)?
A: −8.6(−11.2, −5.9)

Q: And the “Change in ADCS-ADL from baseline at week 52, difference from placebo group (95% confidence interval)” value [3, 9]?
A: −0.9 (−4.7, 2.8)

Q: What about the “Change in ADCS-ADL from baseline at week 52, least square means (95% confidence interval)” value [3, 9] of the same compound?
A: −11.6(−14.5, −8.8)

Q: What about the “Change in ADCS-ADL from baseline at week 52, difference from placebo group (95% confidence interval)” value [3, 10] of the same compound?
A: 1.2(−1.3, 3.8)

Q: What about the “Change in ADCS-ADL from baseline at week 52, least square means (95% confidence interval)” value [3, 10] of the same compound?
A: −10.1(−12.0, −8.1)

Q: And the “Change in ADCS-ADL from baseline at week 52, difference from placebo group (95% confidence interval)” value ([3]; high dose group, within 2.6 years from clinical diagnosis)?
A: 3.1(−0.4, 6.6)

Q: And the “Change in ADCS-ADL from baseline at week 52, least square means (95% confidence interval)” value [3, 5]?
A: −11.7(−14.5, −9.0)

Q: And the “Change in ADCS-ADL from baseline at week 52, difference from placebo group (95% confidence interval)” value [3, 6]?
A: 0.3(−3.2, 3.8)

Q: What about the “Change in ADCS-ADL from baseline at week 52, least square means (95% confidence interval)” value [3, 6] of the same compound?
A: −10.4(−13.0, −7.8)

Q: What about the “Change in ADCS-ADL from baseline at week 52, difference from placebo group (95% confidence interval)” value [3, 11] of the same compound?
A: 0.2(−2.3, 2.7)

Q: What about the “Change in ADCS-ADL from baseline at week 52, least square means (95% confidence interval)” value [3, 11] of the same compound?
A: −11.0(−13.0, −9.1)

Q: And the “Change in ADCS-ADL from baseline at week 52, difference from placebo group (95% confidence interval)” value [3, 8]?
A: 0.0(−3.6, 3.6)

Q: What about the “Changes in ADAS-cog from the baseline at week 52, Compound A group versus placebo group (in words)” value ([4]; Test Example 2, all subject patients) of the same compound?
A: no statistically significant difference

Q: What about the “Changes in ADAS-cog from the baseline at week 52, Compound A low dose group versus placebo group (in words)” value ([4]; Test Example 2, low dose group (160 mg), within 2.6 years from clinical diagnosis of AD and MMSE score of 22 or less at screening) of the same compound?
A: statistically significant difference

Q: And the “Change in ADAS-cog from baseline at week 52, least square means (95% confidence interval)” value [4, 5]?
A: 1.3(−0.3, 4.7)

Q: What about the “Change in ADAS-cog from baseline at week 52, difference from placebo group (95% confidence interval)” value [4, 6] of the same compound?
A: 1.7(−1.3, 4.7)

Q: And the “Change in ADAS-cog from baseline at week 52, least square means (95% confidence interval)” value [4, 6]?
A: 3.0(0.8, 5.3)

Q: And the “Change in ADAS-cog from baseline at week 52, difference from placebo group (95% confidence interval)” value [4, 7]?
A: −1.2(−3.0, 0.5)

Q: And the “Change in ADAS-cog from baseline at week 52, least square means (95% confidence interval)” value [4, 7]?
A: 1.9(0.5, 3.2)

Q: What about the “Change in ADAS-cog from baseline at week 52, difference from placebo group (95% confidence interval)” value [4, 8] of the same compound?
A: −2.6(−4.8, −0.5)

— patent publication US11541033B2, “Agent for preventing or treating Alzheimer's disease” (FUJIFILM Toyama Chemical Co., Ltd., priority 2017, dated 2023)
